Laboratory results reported in paper PMC12163657 (ACS Omega, 2025).
pIC50: −log10 of the molar value.

Legend:
ERα [1] = target: T1, ERα (Homo sapiens, UniProt P03372); experiment: Alkaline phosphatase; format: cell-based; conditions: Ishikawa, read-out: AP % E max, Ishikawa (ECC-1) cells, agonist mode, 72 h
T1 sequence (P03372 1-595): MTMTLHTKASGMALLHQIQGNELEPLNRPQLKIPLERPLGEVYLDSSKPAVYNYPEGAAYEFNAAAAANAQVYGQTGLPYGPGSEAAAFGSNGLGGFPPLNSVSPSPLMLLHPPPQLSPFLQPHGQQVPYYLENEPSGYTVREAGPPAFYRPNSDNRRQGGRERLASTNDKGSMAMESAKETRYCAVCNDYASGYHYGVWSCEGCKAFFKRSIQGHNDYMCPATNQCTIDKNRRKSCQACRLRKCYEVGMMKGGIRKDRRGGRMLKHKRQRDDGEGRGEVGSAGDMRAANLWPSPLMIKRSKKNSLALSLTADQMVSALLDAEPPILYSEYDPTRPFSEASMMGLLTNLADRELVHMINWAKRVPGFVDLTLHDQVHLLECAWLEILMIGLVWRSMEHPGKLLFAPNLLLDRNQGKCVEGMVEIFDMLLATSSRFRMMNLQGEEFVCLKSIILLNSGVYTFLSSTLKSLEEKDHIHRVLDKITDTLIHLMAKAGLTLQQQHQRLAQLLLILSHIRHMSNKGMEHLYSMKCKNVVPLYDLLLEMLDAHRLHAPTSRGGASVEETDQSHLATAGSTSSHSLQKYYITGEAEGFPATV

ERα LBD = target: T2, ERα LBD (Homo sapiens, UniProt P03372); experiment: LanthaScreen TR-FRET ERα competitive binding assay
T2 sequence (P03372 311-547 limits assumed): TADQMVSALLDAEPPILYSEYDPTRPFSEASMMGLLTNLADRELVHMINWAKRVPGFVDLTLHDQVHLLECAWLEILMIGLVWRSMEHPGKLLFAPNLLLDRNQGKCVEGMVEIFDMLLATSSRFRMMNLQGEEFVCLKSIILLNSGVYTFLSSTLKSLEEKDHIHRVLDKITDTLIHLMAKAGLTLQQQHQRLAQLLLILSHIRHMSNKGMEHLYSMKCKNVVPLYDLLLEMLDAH

ERα [2] = target: T1, ERα; experiment: Alkaline phosphatase; format: cell-based
[3] = Mouse hepatocyte stability; format: in vitro ADME; conditions: hepatocytes
[4] = Human hepatocyte stability; format: in vitro ADME; conditions: hepatocytes
[5] = Plasma protein binding, rapid equilibrium dialysis, mouse plasma; format: in vitro ADME; conditions: undiluted plasma
[6] = system: E2-induced uterine wet weight; experiment: Ovariectomized mouse uterine wet weight study; format: in vivo; conditions: dose giving 50% inhibition of E2-induced uterine wet weight; oral, once daily, 3 days
[7] = In vivo mouse oral single dose PK; conditions: for total AUCinf / free AUCinf: oral single dose; for free AUCinf: estimated based on the percent free fraction; for Cmax / half-life: plasma, po

CCCN1CC(Oc2ccc([C@@H]3c4[nH]c5ccccc5c4C[C@@H](C)N3CC(F)(F)CO)cc2)C1 [compound 38, CCCN1CC(C1)Oc1ccc(cc1)[C@H]1N(CC(F)(F)CO)[C@H](C)Cc2c1[nH]c1ccccc21]
Emax (ERα [1]): 0% | pIC50 (ERα LBD): 9.00 | pIC50 (ERα [2]): 9.80 | half-life [3]: 3.83 h | hepatocyte CLint [3]: 6 µL/min/1e6 cells | half-life [4]: 1.27 h | hepatocyte CLint [4]: 18.2 µL/min/1e6 cells

CCCN1CC(Oc2ccc([C@@H]3c4[nH]c5ccccc5c4C[C@@H](C)N3CCC(C)(C)F)cc2)C1 [compound 42, CCCN1CC(C1)Oc1ccc(cc1)[C@H]1N(CCC(C)(C)F)[C@H](C)Cc2c1[nH]c1ccccc21]
Emax (ERα [1]): 0% | pIC50 (ERα LBD): 7.80 | pIC50 (ERα [2]): 7.30

CCCCN1CC(Oc2ccc([C@@H]3c4[nH]c5ccccc5c4C[C@@H](C)N3CC(C)(C)F)cc2)C1 [compound 35, CCCCN1CC(C1)Oc1ccc(cc1)[C@H]1N(CC(C)(C)F)[C@H](C)Cc2c1[nH]c1ccccc21]
Emax (ERα [1]): 27% | pIC50 (ERα LBD): 8.80

C[C@@H]1Cc2c([nH]c3ccccc23)[C@@H](c2ccc(CCCN3CC(CF)C3)c(F)c2)N1CC(C)(C)F [compound 25, C[C@@H]1Cc2c([nH]c3ccccc23)[C@H](N1CC(C)(C)F)c1ccc(c(c1)F)CCCN1CC(CF)C1]
Emax (ERα [1]): 22% | pIC50 (ERα LBD): 8.40 | pIC50 (ERα [2]): 8.10

CCCCCN1CC(Oc2ccc([C@@H]3c4[nH]c5ccccc5c4C[C@@H](C)N3CC(C)(C)F)cc2)C1 [compound 36, CCCCCN1CC(C1)Oc1ccc(cc1)[C@H]1N(CC(C)(C)F)[C@H](C)Cc2c1[nH]c1ccccc21]
Emax (ERα [1]): 93% | pIC50 (ERα LBD): 8.60

CCCN1CC(Oc2ccc([C@@H]3c4[nH]c5ccccc5c4C[C@@H](C)N3CC(C)(C)F)cc2F)C1 [compound 28, CCCN1CC(C1)Oc1ccc(cc1F)[C@H]1N(CC(C)(C)F)[C@H](C)Cc2c1[nH]c1ccccc21]
Emax (ERα [1]): 3.1% | pIC50 (ERα LBD): 8.40 | pIC50 (ERα [2]): 8.00

C[C@@H]1Cc2c([nH]c3ccccc23)[C@@H](c2ccc(OCCN3CC(CF)C3)cc2)N1CC(C)(C)F [compound 23, C[C@@H]1Cc2c([nH]c3ccccc23)[C@H](N1CC(C)(C)F)c1ccc(cc1)OCCN1CC(CF)C1]
pIC50 (ERα LBD): 8.80 | fraction unbound at 4 h, 1 µM [5]: 0.0017 | uterine wet weight ID50 [6]: <0.1 mg/kg | pIC50 (ERα [2]): 8.90 | total AUCinf [7]: 2289 ng·h/mL | free AUCinf [7]: 3.9 ng·h/mL | Cmax [7]: 186 ng/mL | half-life [7]: 7 h | half-life [3]: 5.37 h | hepatocyte CLint [3]: 4.3 µL/min/1e6 cells | half-life [4]: 3.82 h | hepatocyte CLint [4]: 6.1 µL/min/1e6 cells

C[C@@H]1Cc2c([nH]c3ccccc23)[C@@H](c2ccc(CCCN3CC(CF)C3)cc2)N1CC(C)(C)F [compound 22, C[C@@H]1Cc2c([nH]c3ccccc23)[C@H](N1CC(C)(C)F)c1ccc(cc1)CCCN1CC(CF)C1]
Emax (ERα [1]): > 50% | pIC50 (ERα LBD): 8.80

CCCN1CC(Oc2ccc([C@@H]3c4[nH]c5ccccc5c4C[C@@H](C)N3CCC(C)(C)O)cc2)C1 [compound 39, CCCN1CC(C1)Oc1ccc(cc1)[C@H]1N(CCC(C)(C)O)[C@H](C)Cc2c1[nH]c1ccccc21]
Emax (ERα [1]): 2% | pIC50 (ERα LBD): 8.90 | pIC50 (ERα [2]): 6.40

C[C@@H]1Cc2c([nH]c3ccccc23)[C@@H](c2ccc(OC3CN(C)C3)cc2)N1CC(C)(C)F [compound 33, C[C@@H]1Cc2c([nH]c3ccccc23)[C@H](N1CC(C)(C)F)c1ccc(cc1)OC1CN(C)C1]
Emax (ERα [1]): 10% | pIC50 (ERα LBD): 9.30 | pIC50 (ERα [2]): 8.10

C[C@]12CC[C@@H]3c4ccc(O)cc4C[C@@H](CCCCCCCCC[S+]([O-])CCCC(F)(F)C(F)(F)F)[C@H]3[C@@H]1CC[C@@H]2O (stereo partly shown) [fulvestrant 3, fulvestrant, reference compound]
Emax (ERα [1]): 0.1%

CCCN1CC(Cc2cc(F)c([C@@H]3c4[nH]c5ccccc5c4C[C@@H](C)N3CC(C)(C)F)c(F)c2)C1 [compound 31, CCCN1CC(C1)Cc1cc(c(c(c1)F)[C@H]1N(CC(C)(C)F)[C@H](C)Cc2c1[nH]c1ccccc21)F]
Emax (ERα [1]): 5.4% | pIC50 (ERα LBD): 8.30 | pIC50 (ERα [2]): 8.80 | half-life [3]: > 6 h | hepatocyte CLint [3]: < 3.9 µL/min/1e6 cells | half-life [4]: > 6 h | hepatocyte CLint [4]: < 3.9 µL/min/1e6 cells

C[C@@H]1Cc2c([nH]c3ccccc23)[C@@H](c2ccc(OCCN3CC(CF)C3)c(F)c2)N1CC(C)(C)F [compound 26, C[C@@H]1Cc2c([nH]c3ccccc23)[C@H](N1CC(C)(C)F)c1ccc(c(c1)F)OCCN1CC(CF)C1]
Emax (ERα [1]): 2.1% | pIC50 (ERα LBD): 8.60 | pIC50 (ERα [2]): 8.70 | half-life [3]: 3.78 h | hepatocyte CLint [3]: 6.1 µL/min/1e6 cells | half-life [4]: 4.55 h | hepatocyte CLint [4]: 5.1 µL/min/1e6 cells

CCCN1CC(Oc2cc(F)c([C@@H]3c4[nH]c5ccccc5c4C[C@@H](C)N3CC(C)(C)F)c(F)c2)C1 [compound 32, CCCN1CC(C1)Oc1cc(c(c(c1)F)[C@H]1N(CC(C)(C)F)[C@H](C)Cc2c1[nH]c1ccccc21)F]
fraction unbound at 4 h, 1 µM [5]: 0.0001 | total AUCinf [7]: 2743 ng·h/mL | free AUCinf [7]: 0.3 ng·h/mL | Cmax [7]: 219 ng/mL | half-life [7]: 15 h | half-life [3]: > 6 h | hepatocyte CLint [3]: < 3.9 µL/min/1e6 cells | half-life [4]: 5.4 h | hepatocyte CLint [4]: 4.3 µL/min/1e6 cells

CCCN1CC(Cc2ccc([C@@H]3c4[nH]c5ccccc5c4C[C@@H](C)N3CC(C)(C)F)cc2F)C1 [compound 27, CCCN1CC(C1)Cc1ccc(cc1F)[C@H]1N(CC(C)(C)F)[C@H](C)Cc2c1[nH]c1ccccc21]
Emax (ERα [1]): 7.4% | pIC50 (ERα LBD): 8.70 | pIC50 (ERα [2]): 8.30

CCCN1CC(Oc2ccc([C@@H]3c4[nH]c5ccccc5c4C[C@@H](C)N3C[C@H](C)CO)cc2)C1 [compound 37, CCCN1CC(C1)Oc1ccc(cc1)[C@H]1N(C[C@H](C)CO)[C@H](C)Cc2c1[nH]c1ccccc21]
Emax (ERα [1]): 0.7% | pIC50 (ERα LBD): 9.30 | pIC50 (ERα [2]): 8.00

CCCN1CC(Cc2ccc([C@@H]3c4[nH]c5ccccc5c4C[C@@H](C)N3CC(C)(C)F)cc2)C1 [compound 24, CCCN1CC(C1)Cc1ccc(cc1)[C@H]1N(CC(C)(C)F)[C@H](C)Cc2c1[nH]c1ccccc21]
Emax (ERα [1]): 8.5% | pIC50 (ERα LBD): 8.40 | pIC50 (ERα [2]): 8.50

CCN1CC(Oc2ccc([C@@H]3c4[nH]c5ccccc5c4C[C@@H](C)N3CC(C)(C)F)cc2)C1 [compound 34, CCN1CC(C1)Oc1ccc(cc1)[C@H]1N(CC(C)(C)F)[C@H](C)Cc2c1[nH]c1ccccc21]
Emax (ERα [1]): 4.6% | pIC50 (ERα LBD): 9.30

C[C@@H]1Cc2c([nH]c3ccccc23)[C@@H](c2c(F)cc(CCCN3CC(CF)C3)cc2F)N1CC(C)(C)F [compound 29, C[C@@H]1Cc2c([nH]c3ccccc23)[C@H](N1CC(C)(C)F)c1c(cc(cc1F)CCCN1CC(CF)C1)F]
pIC50 (ERα LBD): 8.60

C[C@@H]1Cc2c([nH]c3ccccc23)[C@@H](c2c(F)cc(OCCN3CC(CF)C3)cc2F)N1CC(C)(C)F [compound 30, C[C@@H]1Cc2c([nH]c3ccccc23)[C@H](N1CC(C)(C)F)c1c(cc(cc1F)OCCN1CC(CF)C1)F]
fraction unbound at 4 h, 1 µM [5]: 0.0004 | total AUCinf [7]: 2090 ng·h/mL | free AUCinf [7]: 0.8 ng·h/mL | Cmax [7]: 112 ng/mL | half-life [7]: 11 h | half-life [3]: > 6 h | hepatocyte CLint [3]: < 3.9 µL/min/1e6 cells | half-life [4]: 4.5 h | hepatocyte CLint [4]: 5.1 µL/min/1e6 cells

CCCN1CC(Oc2ccc([C@@H]3c4[nH]c5ccccc5c4C[C@@H](C)N3C[C@@H](C)CO)cc2)C1 [compound 40, CCCN1CC(C1)Oc1ccc(cc1)[C@H]1N(C[C@@H](C)CO)[C@H](C)Cc2c1[nH]c1ccccc21]
Emax (ERα [1]): 0.4% | pIC50 (ERα LBD): 8.90 | pIC50 (ERα [2]): 8.50 | half-life [3]: 3.05 h | hepatocyte CLint [3]: 7.6 µL/min/1e6 cells | half-life [4]: 2.62 h | hepatocyte CLint [4]: 8.8 µL/min/1e6 cells

CCCN1CC(Oc2ccc([C@@H]3c4[nH]c5ccccc5c4C[C@@H](C)N3CC(F)(F)COC)cc2)C1 [compound 41, CCCN1CC(C1)Oc1ccc(cc1)[C@H]1N(CC(F)(F)COC)[C@H](C)Cc2c1[nH]c1ccccc21]
Emax (ERα [1]): 0.9% | pIC50 (ERα LBD): 9.00 | pIC50 (ERα [2]): 8.30 | potency loss in AP (antag.) relative to 38 (ERα [2]; replacing OH with OMe): 1.5 log | half-life [3]: 1.27 h | hepatocyte CLint [3]: 18.2 µL/min/1e6 cells | half-life [4]: 1.65 h | hepatocyte CLint [4]: 14.1 µL/min/1e6 cells
